{"source": "patent US20100216706A1", "about": "“Ghrelin Protects Substantia Nigra Dopamine Neurons” (priority 2007, published 2010)", "key": {"TH neurons in the SNpc": {"test_system": "TH neurons in the SNpc", "experiment": "MPTP-induced TH cell loss in the SNpc (stereology, optical fractionator)", "assay_type": "in vivo, mice", "from_the_text": "(§1) Control animals were given saline. Animals were sacrificed and perfused 7 days later and processed for immunohistochemistry or HPLC for dopamine (DA) and metabolites. n=8-10 for ghrelin wt and ko mice; n=6 for GHSR wt/wt, homo/wt and homo/TG.\nTH cell quantification: Free floating sections were stained with TH (1:5000, Chemicon International) and visualized with DAB using standard procedures.\nUnbiased stereology methods were used to quantify TH immunoreactive cells in the SNpc. Cells were visualized by a Zeiss microscope and relayed via a MicroFibre digital camera (www(dot)optronics(dot)com) to a computer where they were counted using the optical fractionator with the sophisticated Stereolnvestigator software (MicroBrightField, Williston, Vt., USA). Every fourth section was collected through the SNpc, and TH cells were counted in grids randomly positioned by the software in the outlined counting area through all optical planes, thus creating a 3 dimensional counting area.\n(§2) The observation that ghrelin promotes SNpc DA neuronal function, mitochondrial respiration and number raises the possibility that ghrelin may protect nigrostriatal dopaminergic system during increased cellular stress. […] In brief, mice were treated with daily IP injections of exogenous ghrelin (10 nmols) or saline for 14 days. Mice were injected immediately before the dark phase, and food was removed overnight since calorie intake and postprandial increases in glucose and insulin can suppress the action of ghrelin (Cummings et al., 2006, Physiol Behav 89: 71-84). Both ghrelin and saline treated mice were given 3 grams of standard chow the following morning at 9 am. […] After the subsequent 7 days of treatment (saline or ghrelin), TH immunoreactive neurons were counted blind by two independent researchers using the non-biased optical fractionator on the stereology program, Stereoinvestigator."}, "striatal dopamine [1]": {"test_system": "striatal dopamine", "experiment": "Striatal DA concentration after ghrelin injection (HPLC)", "assay_type": "in vivo, mice", "method": "(§3) The samples were subsequently thawed in 0.4 ml of chilled 0.1 M perchloric acid and sonicated. Aliquots were taken for protein quantification using a spectrophotometric assay. Other aliquots were centrifuged, and DA levels were measured in supernatants by high pressure liquid chromatography (HPLC) with electrochemical detection. Concentrations of DA and metabolites were expressed as ng/mg protein (mean±SEM).\nTo further examine the effect of ghrelin on the nigrostriatal system, striatal DA concentration after ghrelin injection in wild-type mice was measured using HPLC."}, "[2]": {"test_system": "midbrain (SN-VTA) mitochondria", "experiment": "Mitochondrial respiration in midbrain of ghrelin-treated rats (Clark-type oxygen electrode)", "assay_type": "in vivo", "conditions": "30 nmol IP, 3 hours", "method": "Mitochondrial respiration: The ability of ghrelin to promote mitochondrial respiration was examined in mitochondria isolated from midbrain of ghrelin-treated rats (30 nmol) three hours after injection. Rats were used as the mitochondrial yield after isolation is much higher than the yield from mice. Mitochondrial respiration was also examined in the pooled midbrain of UCP2 ko and wt mice (3 pooled brains), 3 hours after ghrelin injection (IP 30 nmol).\nMitochondria were pooled from the SN-VTA (4 animals=1, total n=4) and isolated by differential centrifugation. Because of the size of the tissue dissected, it was impossible to solely isolate only the SNc, and as such the results are reported as SN-VTA. Briefly, the SN-VTA was rapidly dissected and homogenized in isolation buffer (215 mM Mannitol, 75 mM sucrose, 0.1% fatty acid free BSA, 20 mM Hepes, 1 mM EGTA, pH adjusted to 7.2 with KOH). The homogenate was spun at 1300×g for 3 minutes. The supernatant was removed, and the pellet was resuspended with isolation buffer and spun again at 1300×g for 3 minutes. The 2 sets of supernatant from each sample were topped off with isolation buffer and spun at 13000×g for 10 minutes. The supernatant was discarded, and this step was repeated. After this second spin at 13000×g, the supernatant was discarded, and the pellets were resuspended with isolation buffer without EGTA and spun at 10000×g for 10 minutes. The final mitochondrial pellet was resuspended with 50 μl of isolation buffer without EGTA. Protein concentrations were determined with a BCA protein assay kit (Pierce, Rockford, Ill., USA).\nMitochondrial respirations were assessed using a Clark-type oxygen electrode (Hansatech Instruments, Norfolk, England) at 37° C. with pyruvate and malate (5 mM and 2.5 mM) as oxidative substrates in respiration buffer (215 mM Mannitol, 75 mM sucrose, 0.1% fatty acid free BSA, 20 mM Hepes, 2 mM MgC1, 2.5 mM KH2PO4, pH adjusted to 7.2 with KOH). Following the addition of ADP and oligomycin, UCP-mediated proton conductance was measured as increased fatty acid-induced respiration (Echtay et al., 2002), which was then compared to state 4 respiration induced by oligomycin, an inhibitor of H^+ transporting ATP synthase.\nTo determine whether ghrelin influences mitochondrial metabolism in the SNpc, mitochondrial respiration was measured in isolated […] from the midbrain of ghrelin-treated wild-type rats.\nGhrelin was administered intraperitoneally (30 nmol) and food was removed for the three hours injection period prior to sacrifice as ingested calorie load and the postprandial increase in glucose and insulin are known to reduce ghrelin effectiveness (Callahan et al., 2004, J Clin Endocrinol Metab 89: 1319-24; Cummings et al., 2006, Physiol Behav 89: 71-84). […] Subsequent blocking of the ATP synthase with oligomycin produced greater basal uncoupling after ghrelin (saline 31.4±1.4 vs ghrelin 50.4±1.5, p<0.0001; FIG. 4A). Palmitate (free fatty-acid) induced respiration was also elevated in ghrelin-treated rats (saline 125.0±3.8 vs ghrelin 185.3±9.3, p<0.001; FIG. 4A). Finally, ghrelin increased FCCP-driven respiration, an index of total uncoupling capacity of the inner mitochondrial membrane (FIG. 4A)."}, "striatal dopamine [3]": {"test_system": "striatal dopamine", "experiment": "Striatal dopamine after MPTP (HPLC)", "assay_type": "in vivo, mice", "conditions": "ghrelin 14 days", "method": "as §1, §3, §2"}}, "note": "No end group written: not given here. *: point of attachment. Octanoyl = CCCCCCCC(=O)*"}
{"substance": "ghrelin (GSS(Octanoyl)FLSPEHQRVQQRKESKKPPAKLQPR; listed as Homo sapiens) [28 amino acid acyl-peptide esterified with octanoic acid on Ser3; endogenous ligand of GHSR]", "values": [{"measurement": "Total TH neurons in SNpc, ghr/MPTP", "setting": "TH neurons in the SNpc; ghrelin 10 nmols IP daily 14 days, MPTP 30 mg/kg IP on day 7", "value": "7836±285"}, {"measurement": "Total TH neurons in SNpc, ghr/sal", "setting": "TH neurons in the SNpc; ghrelin 10 nmols IP daily 14 days, saline on day 7, sal/sal 11283±342", "value": "11616±318"}, {"measurement": "Dopamine cell loss compared to control mice, ghrelin treatment", "setting": "TH neurons in the SNpc; ghrelin 14 days, MPTP on day 7", "value": 33, "unit": "%"}, {"measurement": "SNpc volume, ghr/MPTP", "setting": "TH neurons in the SNpc; ghrelin 14 days, MPTP on day 7", "value": "not significantly different"}, {"measurement": "SNpc volume, ghr/sal vs sal/sal", "setting": "TH neurons in the SNpc; ghrelin 14 days, saline on day 7", "value": "not significantly different"}, {"measurement": "Effect on DA concentration in ghsr−/− mice", "setting": "striatal dopamine [1]; ghsr−/− mice", "value": "no effect"}, {"measurement": "DA concentration in ventral striata", "setting": "striatal dopamine [1]; wild-type mice after ghrelin injection", "value": "126.5±7.26", "unit": "ng/mg protein"}, {"measurement": "DA concentration in dorsal striatum", "setting": "striatal dopamine [1]; wild-type mice after ghrelin injection, saline 119.4±9.6", "value": "153±4.6", "unit": "ng/mg protein"}, {"measurement": "FCCP-driven respiration", "setting": "[2]", "value": "increased"}, {"measurement": "Basal uncoupling after oligomycin", "setting": "[2]; saline 31.4±1.4", "value": "50.4±1.5"}, {"measurement": "Mitochondrial respiration after pyruvate and malate", "setting": "[2]; saline 33.5±2.1", "value": "49.5±1.9"}, {"measurement": "Palmitate induced respiration", "setting": "[2]; saline 125.0±3.8", "value": "185.3±9.3"}, {"measurement": "Mitochondrial respiration after ADP", "setting": "[2]; saline 128.3±7.5", "value": "185.2±17.7"}, {"measurement": "Loss of striatal dopamine vs controls, ghr/MPTP", "setting": "striatal dopamine [3]; MPTP on day 7", "value": 45, "unit": "%"}, {"measurement": "Striatal dopamine concentration, ghr/MPTP", "setting": "striatal dopamine [3]; MPTP on day 7", "value": "78.4±8.8", "unit": "ng/mg protein"}, {"measurement": "Striatal dopamine concentration, ghr/sal", "setting": "striatal dopamine [3]; saline on day 7, sal/sal 147.4±10.2", "value": "141.8±7.5", "unit": "ng/mg protein"}]}
